For four compounds, MIC and IC50 results are on record in ChEMBL document CHEMBL1212788, “Mode of action of Van-M-02, a novel glycopeptide inhibitor of peptidoglycan synthesis, in vancomycin-resistant bacteria” (Antimicrob Agents Chemother, 2010).

Structures are written as SMILES. ≈ marks a conversion by molar mass, not a printed value.

The test system of assay [1] is Enterococcus faecalis. Description: Antibacterial activity against vancomycin A resistant Enterococcus faecalis isolate SR-7914 by broth dilution method. Type of assay: functional. The settings on record: isolate SR7914. On the technique in general: Broth dilution looks for growth in wells or tubes with falling amounts of substance.
In assay [2] the test system is Staphylococcus aureus. The assay can be described thus: Inhibition of lipid intermediate formation in methicillin susceptible Staphylococcus aureus RN4220 assessed as reduction in N-acetyl-D-[1-3H]glucosamine incorporation in crude assay system. The format is functional.
Assay [3] has as its system Staphylococcus aureus. Description: Antibacterial activity against methicillin susceptible Staphylococcus aureus RN4220 in presence of 8 ug/mL Nalpha,Nepsilon-diacetyl-L-Lys-D-Ala-D-Lactate by broth dilution method. The format is functional.
For assay [4], the system named is Staphylococcus aureus. Description: Antibacterial activity against methicillin susceptible Staphylococcus aureus RN4220 in presence of 64 ug/mL Nalpha,Nepsilon-diacetyl-L-Lys-D-Ala-D-Ala by broth dilution method. The format is functional.
Assay [5] concerns Staphylococcus aureus. Description: Antibacterial activity against vancomycin intermediate Staphylococcus aureus ATCC 700787 by broth dilution method. Type of assay: functional.
In assay [6] the test system is Staphylococcus aureus. Description: Antibacterial activity against methicillin susceptible Staphylococcus aureus RN4220 in presence of 8 ug/mL Nalpha,Nepsilon-diacetyl-L-Lys-D-Ala-D-Ala by broth dilution method. Type of assay: functional.
The test system of assay [7] is Enterococcus faecalis. Description: Antibacterial activity against vancomycin susceptible Enterococcus faecalis isolate SR1004 by broth dilution method. Type of assay: functional.
Assay [8] is described as follows: Inhibition of methicillin susceptible Staphylococcus aureus RN4220 transglycosylase assessed as inhibition of peptidoglycan formation by crude assay.
A short description of assay [9]: Inhibition of vancomycin A resistant Staphylococcus aureus isolate HIP11714 transglycosylase assessed as inhibition of peptidoglycan formation by crude assay.
Assay [10] concerns Enterococcus faecium. The assay can be described thus: Antibacterial activity against vancomycin sensitive Enterococcus faecium isolate SR-16972 by broth dilution method. Type of assay: functional. Conditions: isolate SR16972.
Assay [11] relates to Enterococcus faecium. The assay can be described thus: Antibacterial activity against constitutively vancomycin B resistant Enterococcus faecium isolate SRM1101 by broth dilution method. Type of assay: functional.
Assay [12] relates to Staphylococcus aureus. Description: Antibacterial activity against methicillin susceptible Staphylococcus aureus RN4220 by broth dilution method. The format is functional.
Assay [13] has as its system Staphylococcus aureus. The assay can be described thus: Antibacterial activity against methicillin resistant Staphylococcus aureus SR-3637 by broth dilution method. Conditions: SR3637. Type of assay: functional.
In assay [14] the test system is Staphylococcus aureus. The assay can be described thus: Inhibition of lipid intermediate formation in vancomycin A resistant Staphylococcus aureus isolate HIP11714 assessed as reduction in N-acetyl-D-[1-3H]glucosamine incorporation in crude assay system. The format is functional.
The test system of assay [15] is Enterococcus faecium. The assay can be described thus: Antibacterial activity against vancomycin A resistant Enterococcus faecium isolate SR-7940 by broth dilution method. The format is functional. The settings on record: isolate SR7940.
Assay [16] relates to Staphylococcus aureus. The assay can be described thus: Antibacterial activity against vancomycin A resistant Staphylococcus aureus isolate HIP11714 by broth dilution method. The format is functional.
Assay [17] relates to Staphylococcus aureus. The assay can be described thus: Antibacterial activity against methicillin susceptible Staphylococcus aureus RN4220 in presence of 64 ug/mL Nalpha,Nepsilon-diacetyl-L-Lys-D-Ala-D-Lactate by broth dilution method. Type of assay: functional.
The subject of assay [18] is Enterococcus faecium. Description: Antibacterial activity against vancomycin B resistant Enterococcus faecium isolate SR-23598 by broth dilution method. The settings on record: isolate SR23598. Type of assay: functional.
Assay [19] deals with Enterococcus faecalis. Description: Antibacterial activity against vancomycin B resistant Enterococcus faecalis isolate SR-23630 by broth dilution method. The settings on record: isolate SR23630. Type of assay: functional.
Assay [20] deals with Staphylococcus aureus. Description: Antibacterial activity against methicillin susceptible Staphylococcus aureus Smith by broth dilution method. The format is functional.

Broadly, the MIC is the lowest concentration that inhibits growth of the organism. Usually IC50 stands for the concentration needed to halve the response being measured. On to `CN[C@H](CC(C)C)C(=O)N[C@H]1C(=O)N[C@@H](CC(N)=O)C(=O)N[C@H]2C(=O)N[C@H]3C(=O)N[C@H](C(=O)N[C@H](C(=O)O)c4cc(O)cc(O)c4-c4cc3ccc4O)[C@H](O)c3ccc(c(Cl)c3)Oc3cc2cc(c3O[C@H]2O[C@@H](CO)[C@H](O)[C@@H](O)[C@@H]2O[C@@H]2C[C@@](C)(NCc3cccc(NC(=O)c4ccc(C)c(OCc5ccccc5)c4[N+](=O)[O-])c3)[C@@H](O)[C@@H](C)O2)Oc2ccc(cc2Cl)[C@H]1O`, for which the MIC against Enterococcus faecalis [1] came out at 2 µg/mL (≈ 1.1 µM); in the assay on Staphylococcus aureus [3], 0.125 µg/mL; with Staphylococcus aureus [4], 0.5 µg/mL; with Staphylococcus aureus [5], 2 µg/mL (≈ 1.1 µM); in the assay on Staphylococcus aureus [6] it was 0.125 µg/mL; against Enterococcus faecalis [7], 0.25 µg/mL (≈ 0.137 µM). Further, the MIC in the assay with Enterococcus faecium [10] was 0.25 µg/mL (≈ 0.137 µM); against Enterococcus faecium [11], 4 µg/mL (≈ 2.19 µM); with Staphylococcus aureus [12], 0.125 µg/mL (≈ 0.0685 µM); in the assay on Staphylococcus aureus [13], 0.25 µg/mL (≈ 0.137 µM); against Enterococcus faecium [15], 1 µg/mL (≈ 0.548 µM); against Staphylococcus aureus [16], 4 µg/mL (≈ 2.19 µM). Moreover, the MIC in the assay with Staphylococcus aureus [17] came to 0.0625 µg/mL; against Enterococcus faecium [18], 0.25 µg/mL (≈ 0.137 µM); in the assay on Enterococcus faecalis [19], 0.5 µg/mL (≈ 0.274 µM); with Staphylococcus aureus [20], 0.125 µg/mL (≈ 0.0685 µM). For the same compound, the concentration for half-maximal inhibition (IC50) was 32 µg/mL (≈ 17.5 µM) in the assay with Staphylococcus aureus [2], 4.2 µg/mL (≈ 2.3 µM) in assay [8], 36 µg/mL (≈ 19.7 µM) in [9] and 76 µg/mL (≈ 41.7 µM) in the assay with Staphylococcus aureus [14].
For `C[C@H]1O[C@H](O[C@@H]2[C@@H](Oc3c4cc5cc3Oc3ccc(cc3Cl)[C@@H](O)[C@@H](N)C(=O)N[C@@H](CC(N)=O)C(=O)N[C@H]5C(=O)N[C@H]3C(=O)N[C@H](C(=O)N[C@H](C(=O)O)c5cc(O)cc(O)c5-c5cc3ccc5O)[C@H](O)c3ccc(c(Cl)c3)O4)O[C@@H](CO)[C@H](O)[C@H]2O)C[C@@](C)(N)[C@H]1O`, the minimum inhibitory concentration (MIC) with Enterococcus faecalis [1], against Staphylococcus aureus [5], against Enterococcus faecalis [7], against Enterococcus faecium [10], in the assay on Enterococcus faecium [11] and against Staphylococcus aureus [12] was over 64 µg/mL in each case. The MIC in the assay on Staphylococcus aureus [13], in the assay with Enterococcus faecium [15], in the assay with Staphylococcus aureus [16], against Enterococcus faecium [18], with Enterococcus faecalis [19] and against Staphylococcus aureus [20] was over 64 µg/mL in each case. For the same compound, the IC50 with Staphylococcus aureus [2] came out at 3900 µg/mL (≈ 2950 µM); in assay [8] it was 130 µg/mL (≈ 98.3 µM); in [9], 920 µg/mL (≈ 696 µM); with Staphylococcus aureus [14], 3100 µg/mL (≈ 2340 µM).
As for `Cc1ccc(C(=O)Nc2cccc(CN[C@]3(C)C[C@@H](O[C@@H]4[C@@H](Oc5c6cc7cc5Oc5ccc(cc5Cl)[C@@H](O)[C@@H](N)C(=O)N[C@@H](CC(N)=O)C(=O)N[C@H]7C(=O)N[C@H]5C(=O)N[C@H](C(=O)N[C@H](C(=O)O)c7cc(O)cc(O)c7-c7cc5ccc7O)[C@H](O)c5ccc(c(Cl)c5)O6)O[C@@H](CO)[C@H](O)[C@H]4O)O[C@H](C)[C@@H]3O)c2)c([N+](=O)[O-])c1OCc1ccccc1`, the MIC came to 8 µg/mL (≈ 4.72 µM) against Enterococcus faecalis [1]; 2 µg/mL in the assay on Staphylococcus aureus [3]; 2 µg/mL in the assay with Staphylococcus aureus [4]; 4 µg/mL (≈ 2.36 µM) with Staphylococcus aureus [5]; 2 µg/mL in the assay with Staphylococcus aureus [6]; 2 µg/mL (≈ 1.18 µM) against Enterococcus faecalis [7]. The MIC stood at 2 µg/mL (≈ 1.18 µM) with Enterococcus faecium [10]; 16 µg/mL (≈ 9.43 µM) against Enterococcus faecium [11]; 2 µg/mL (≈ 1.18 µM) against Staphylococcus aureus [12]; 2 µg/mL (≈ 1.18 µM) with Staphylococcus aureus [13]; 8 µg/mL (≈ 4.72 µM) in the assay with Enterococcus faecium [15]; 16 µg/mL (≈ 9.43 µM) against Staphylococcus aureus [16]. The MIC with Staphylococcus aureus [17] came out at 1 µg/mL; in the assay on Enterococcus faecium [18] it was 4 µg/mL (≈ 2.36 µM); against Enterococcus faecalis [19], 4 µg/mL (≈ 2.36 µM); in the assay on Staphylococcus aureus [20] it was 2 µg/mL (≈ 1.18 µM). Further, the IC50 with Staphylococcus aureus [2] was determined as 140 µg/mL (≈ 82.5 µM); in assay [8], 11 µg/mL (≈ 6.48 µM); in assay [9], 53 µg/mL (≈ 31.2 µM); in the assay on Staphylococcus aureus [14] it was 93 µg/mL (≈ 54.8 µM).
As for `CN[C@H](CC(C)C)C(=O)N[C@H]1C(=O)N[C@@H](CC(N)=O)C(=O)N[C@H]2C(=O)N[C@H]3C(=O)N[C@H](C(=O)N[C@H](C(=O)O)c4cc(O)cc(O)c4-c4cc3ccc4O)[C@H](O)c3ccc(c(Cl)c3)Oc3cc2cc(c3O[C@@H]2O[C@H](CO)[C@@H](O)[C@H](O)[C@H]2O[C@H]2C[C@](C)(N)[C@H](O)[C@H](C)O2)Oc2ccc(cc2Cl)[C@H]1O` [VANCOMYCIN], the minimal inhibitory concentration (MIC) was over 64 µg/mL in the assay with Enterococcus faecalis [1]; 16 µg/mL in the assay on Staphylococcus aureus [4]; 8 µg/mL (≈ 5.52 µM) in the assay on Staphylococcus aureus [5]; 2 µg/mL (≈ 1.38 µM) against Enterococcus faecalis [7]; over 64 µg/mL with Enterococcus faecium [11]; over 64 µg/mL in the assay on Enterococcus faecium [15]. The MIC was over 64 µg/mL against Staphylococcus aureus [16], over 64 µg/mL in the assay with Enterococcus faecium [18] and 32 µg/mL (≈ 22.1 µM) against Enterococcus faecalis [19]. The IC50 in the assay on Staphylococcus aureus [2] stood at 180 µg/mL (≈ 124 µM); in [8] it was 4.5 µg/mL (≈ 3.11 µM); in assay [9], 85 µg/mL (≈ 58.7 µM); with Staphylococcus aureus [14] it was 2300 µg/mL (≈ 1590 µM).
